The values below come from patent publication US8822433B2, “Complex combining an organic silicon derivative with hyaluronic and acid calibrated fragments, for preventive and repairing action of cutaneous damages” (Exsymol S.A.M., priority 2008, dated 2014).

For data set [1], the system named is reconstructed human epidermis model (RHE) keratinocytes. Nature of the data set: Ki67 immunotracking of cell proliferation on reconstructed human epidermis (tests 1 and 4). It is filed as cell-based. The settings on record: for % cells expressing Ki67/number of total cells (% in relation to the control): vs PBS control. Here is the method: (§1) As purely an indication, the invention is hereafter illustrated by the following tests above described in the specification (tests 1 to 3), and a comparative study (test 4). In tests 1, 2 and 4, the experimental studies have been carried out on a reconstructed human epidermis model (RHE, supplier: SkinEthic®) whose interest is a strong homology with human epidermis.
(§2) The culture of RHE consisted in placing them in a “MCDB 153” growth medium (supplier : SkinEthic®) containing […] of insulin, 1.5 mM of CaCl2 and […] of gentamycine, for 24 hours at 37° C. and 5% CO2.
The observation of cellular proliferation is achieved with the immunotracking technique (Gerdes and al., Int. J. Cancer (1983), vol. 31, pp. 13-20) by using the “Ki67” cell proliferation tracer, for the three following configurations (after a 100 1 twice-daily deposit on RHE): • case 1: PBS buffer solution (control) • case 2: HA fragments 150-600 kDa (concentrations 2 and 5%) • case 3: MSH complex (concentrations 2 and 5%)
Identically to the here-above test 1, keratinocytes' cellular proliferation is observed on reconstructed human epidermis RHE (with the immunotracking technique) for: • the MSH complex according to the invention (based on 150-600 kDa HA fragments) • the dimethylsilanediol hyaluronate marketed by the applicant under the “D.S.H. CN®” brand mark. • D.S.H. CN® is an organo-silicon product resulting from the combination of dimethylsilanediol with hyaluronic acid of high molecular weight (1500 to 2200 kDa HA fragments).

Another data set has as its system IL1α. Nature of the data set: ELISA dosage of pro-inflammatory interleukin IL1 in RHE culture supernatant (test 2). The following applies: for IL1α quantity: RHE supernatant after 24 hours of treatment. The format is cell-based, human. The procedure: as §1, §2
(§3) The culture of RHE is identical to the one of the herebefore test 1. The dosage of the IL1 and IL8 pro-inflammatory interleukines is achieved on a supernatant resulting from culture medium after 24 hours of treatment, with the help of ELISA dosage kits (R&D System Quantikine Immunoassay, D800C, DTA00C and DLA50), and for identical configurations to those of the above test 1.

In a further data set the test system is IL8. Nature of the data set: ELISA dosage of pro-inflammatory interleukin IL8 in RHE culture supernatant (test 2). The format is cell-based, human. The settings on record: for IL8 quantity: RHE supernatant after 24 hours of treatment. Here is the method:
as §1, §2, §3
(In general: In an ELISA, binding on a coated surface is turned into a signal by an enzyme label.)

The next data set relates to bovine hyaluronidases. In words: Deterioration kinetic with hyaluronidases, agarose gel electrophoresis (test 3). The settings on record: 5, 15 and 30 min reaction at 37° C.; compared to fragmented HA non combined. The format is in vitro ADME. Here is the method:
The experimental study consisted in measuring the deterioration kinetic of the MSH complex according to the invention submitted in vitro to bovine hyaluronidases, by electrophoresis on agarose gel. 10 1 of 1 mg/ml hyaluronidases are mixed to 50 1 of complex in a PBS buffer solution during 30 minutes at 37° C.
Successively at 5, 15 and 30 minutes, 10 1 of reaction mixture are taken, then heated at 95° C. in order to stop the enzymatic reaction. These 10 1 are then deposited on an agarose gel and a suitable stain (Stains all®) is used for the electrophoresis disclosure.

Consider “monomethylsilanetriol combined with one or several hyaluronic acid fragments of molecular weight between 150 and 600 kDa [MSH complex]”, for which the cytostimulation entry in data set [1] (compared to non combined fragmented HA) is “potentiated cytostimulation”. In addition, the “% cells expressing Ki67/number of total cells (% in relation to the control)” value in data set [1] (concentration 2.5%, twice-daily deposit, three independent experiments) is listed as “+14 (±1.0) %”; in data set [1] (concentration 5%, twice-daily deposit, three independent experiments), “+63 (±0.5) %”; in data set [1] (test 4 (Table 4), concentration 5%), “+69.5 (±3.1) %”. Besides, in the data set on IL1α (RHE, 24 hours, compared with control, IL1 and IL8), the “induction of pro-inflammatory cytokines” value is on record as “No significant induction”. In addition, the IL1α quantity in the data set on IL1α (concentration 2.5%) is given as 3.5 (±1.8) pg/ml; in the data set with IL1α (concentration 5%), 3.4 (±0.8) pg/ml. The IL8 quantity in the data set with IL8 (concentration 2.5%) is 20.1 (±7.2) pg/ml; with IL8 (concentration 5%) it was 34.8 (±13.7) pg/ml. Also, the “IL8 type-interleukines' rate” value with IL8 (in relation to the control and to the non combined HA fragment) was “reduction”. Moreover, the “distribution of HA with a high molecular weight after hyaluronidase treatment” value in the data set on bovine hyaluronidases is “more important distribution of HA with a high molecular weight”.
